Experiments:
hypertensive rats = conditions: Wu et al., 2001, Yeh et al., 2010; cited from earlier work
MI rats [1] = test: Echocardiography 4 weeks post-surgery in MI rats (LVEDD, LVESD, fractional shortening); assay type: in vivo, rat; conditions: KMUP-3 for 4 weeks, FIG. 2
Text: (§1) MI is induced by ligation of the left anterior descending (LAD) coronary artery according to Liang et al., 2006. […] The LAD is ligated with 6.0 silk at 2 mm from the origin, and the wound is closed with primary suture. After the operation, the animals are observed until fully conscious. Sham animals undergo similar thoracotomy and pericardiotomy, except that the ligature around the coronary artery is not tied. Surviving rats are fitted with ALZET osmotic minipumps (Model 2ML4, DURECT Corporation, Cupertino, Calif., USA) immediately after recovery. At this time, most of the rats are still anaesthetized from the previously administered pentobarbital sodium; a further bolus dose of pentobarbital sodium (15 mg·kg^−1) is given if necessary. […] In the treatment group, the minimumps are filled with hydrochloride of KMUP-3 (KMUP-3·HCl; 0.3 mg·kg^−1·day^−1). In the sham and MI groups, the minipumps are filled with saline.

eNOS = test: Western blot of eNOS protein expression in rat hearts; assay type: in vivo; conditions: Western blot densitometry, versus MI group, FIG. 5c
MMP-9 [2] = test: Western blot of MMP-9 protein expression in rat hearts; assay type: in vivo; conditions: Western blot densitometry, n=9-10, FIG. 5a
[3] = tested on: endothelial nitric oxide synthase (eNOS); conditions: Wu et al., 2005; Lin et al., 2006; cited from earlier work
aortic smooth muscle = conditions: through opening a KATP channel and increasing eNOS; attenuated by glibenclamide; Wu et al., 2005; Lin et al., 2006; cited from earlier work
TIMP-1 [4] = test: TIMP-1 protein expression in TGF-β-stimulated human cardiac fibroblasts (HCFs); assay type: cell-based; conditions: KMUP-3 10 mmol·L−1, TGF-β 10 ng·mL−1, FIG. 6b
Description: (§2) Human cardiac fibroblasts (HCFs; catalogue number: 306-05f) are purchased from Cell Applications Inc. (San Diego, Calif., USA). The cells are cultured as monolayer in Dulbecco's modified Eagle's medium containing 10% fetal bovine serum at 37° C. in 95% humidity and 5% CO2. Cells are harvested at passage 3-6 for experiment. Before treatment, HCFs are washed twice with serum-free medium and switched to serum-free medium for 24 h. To stimulate MMP-9 expression, the cultures are treated with 10 ng·mL^−1 transforming growth factor-b (TGF-β) for 24 h. HCFs are pretreated with KMUP-3 (10 mmol·L^−1) or in combination with L-NAME (100 mmol·L^−1) for 1 h before addition of 10 ng·mL^−1 TGF-β for 24 h. Each experiment is repeated three times.
(§3) The hearts are sonicated in 50 mmol·L^−1 Tris for 10 s two times and centrifuged at 13,000 rpm at 4° C. for 30 min. The protein concentration of the supernatants is determined by using bovine serum albumin as the standard. The cell extracts are boiled in ratio of 4:1 with sample buffer (100 mmol·L^−1 Tris, pH 6.8, 20% glycerol, 4% SDS, and 0.2% bromophenol blue). Electrophoresis is performed using 10% SDS-polyacrylamide gel electrophoresis and transferred to nitrocellulose membranes (Millipore Corporation, Billerica, Mass., USA). […] The intensity of the bands is quantified by densitometry.

MI rats [5] = test: Cardiac structure and haemodynamics in rats after myocardial infarction (LAD ligation), LV catheter; assay type: in vivo, rat
Text: Male rats (250-300 g) are provided by the National Laboratory Animal Breeding and Research Center (Taipei, Taiwan) and housed under constant temperature and controlled illumination. Food and water are available ad libitum. MI is induced by ligation of the left anterior descending (LAD) coronary artery according to Liang et al., 2006. […] The LAD is ligated with 6.0 silk at 2 mm from the origin, and the wound is closed with primary suture. After the operation, the animals are observed until fully conscious. Sham animals undergo similar thoracotomy and pericardiotomy, except that the ligature around the coronary artery is not tied. All the animals are administered with s.c. doses of analgesia (ketoprofen; 3 mg·kg^−1) and antibiotics (gentamicin; 0.7 mg·kg^−1) for 2 days. This study was approved by the Animal Care and Use Committee at Kaohsiung Medical University. Surviving rats are fitted with ALZET osmotic minipumps (Model 2ML4, DURECT Corporation, Cupertino, Calif., USA) immediately after recovery. At this time, most of the rats are still anaesthetized from the previously administered pentobarbital sodium; a further bolus dose of pentobarbital sodium (15 mg·kg^−1) is given if necessary. […] In the treatment group, the minimumps are filled with hydrochloride of KMUP-3 (KMUP-3·HCl; 0.3 mg·kg^−1·day^−1). In the sham and MI groups, the minipumps are filled with saline. After echocardiography, a PE-50 catheter is inserted through the right carotid artery to measure the LV systolic pressure (LVSP), LV end-diastolic pressure (LVEDP) and maximum rates of pressure development (LV+dP/dt) and relaxation (LV−dP/dt). […] The hearts are then excised and the atria and right ventricles are dissected out. Sections of the LV are embedded in mounting medium and the remaining tissues are transferred in the liquid nitrogen for further evaluation. Throughout the whole procedure, a further bolus dose of pentobarbital sodium (15 mg·kg^−1) is given if required.

TIMP-1 [6] = test: Western blot of TIMP-1 protein expression in rat hearts; assay type: in vivo; conditions: Western blot densitometry, n=9-10, FIG. 5b
MI rats [7] = test: Cardiac fibrosis by Masson's trichrome staining in MI rats; assay type: in vivo, rat
Text: as §1, with “mg·kg^-1)” for “mg·kg^−1)”, “mg·kg^-1·day^-1).” for “mg·kg^−1·day^−1).”, “saline. Histological analyses are performed to all of the heart. Rats are randomly chosen to be analyzed for area of risk after coronary artery ligature by Evan blue staining as described by Harada et al. (2005). […] Ten sections in each heart are analyzed for the percentage of fibrosis. […] The total LV and infarct area and fibrosis region are measured by an investigator without knowledge of the treatment group using US NIH ImageJ, 1.42q.” for “saline.”

phosphodiesterase = conditions: Wu et al., 2005; Lin et al., 2006; cited from earlier work
MMP-9 [8] = test: MMP-9 protein expression in TGF-β-stimulated human cardiac fibroblasts (HCFs); assay type: cell-based
Description: as §2, §3

MI rats [9] = test: Area of risk (Evans blue) and infarct size (TTC staining) in MI rats; assay type: in vivo, rat
Text: as §1, with “mg·kg^-1)” for “mg·kg^−1)”, “mg·kg^-1·day^-1).” for “mg·kg^−1·day^−1).”, “saline. Histological analyses are performed to all of the heart. Rats are randomly chosen to be analyzed for area of risk after coronary artery ligature by Evan blue staining as described by Harada et al. (2005). […] Ten sections in each heart are analyzed for the percentage of fibrosis. […] The total LV and infarct area and fibrosis region are measured by an investigator without knowledge of the treatment group using US NIH ImageJ, 1.42q.” for “saline.”

[10] = KMUP-3·HCl 0.3 mg·kg−1·day−1 by osmotic minipump, 4 weeks, n=10

Cn1c(=O)c2c(ncn2CCN2CCN(c3ccccc3Cl)CC2)n(C)c1=O [KMUP-1, 7-[2-[4-(2-chlorobenzene)piperazinyl]ethyl]-1,3-dimethylxanthine]
Cardioprotection, cardiac hypertrophy and fibrosis, in words (hypertensive rats): therapeutic effect on the cardioprotection in hypertensive rats, the reducing of the cardiac hypertrophy and fibrosis

Cn1c(=O)c2c(ncn2CCN2CCN(c3ccc([N+](=O)[O-])cc3)CC2)n(C)c1=O [KMUP-3, 7-[2-[4-(4-nitrobenzene)-piperazinyl]ethyl]-1,3-dimethylxanthine]
Cardiac remodeling and dysfunction by echocardiography (LVEDD, LVESD, FS), in words (MI rats [1]): cardiac remodeling and dysfunction may be prevented | eNOS expression in MI rat hearts (eNOS): increases significantly | MMP-9 expression in MI rat hearts (MMP-9 [2]): decreases MMP-9 expression | eNOS in HUVECs, in words [3]: enhance endothelial nitric oxide synthase (eNOS) | Aortic smooth muscle relaxation, in words (aortic smooth muscle): may induce aortic smooth muscle relaxation | TIMP-1 expression in HCFs (TIMP-1 [4]): significantly enhanced | Cardiac systolic function (LV+dP/dt), in words (MI rats [5]; 0.3 mg·kg−1·day−1 for 4 weeks): improved cardiac systolic function | Cardiac remodelling (hypertrophy, heart weight to body weight ratio), in words (MI rats [5]; KMUP-3 treatment 4 weeks): prevents the cardiac remodelling process | HR (heart rate) (MI rats [5]; [10]): 421 ± 5 bpm | HW (heart weight) (MI rats [5]; [10]): 1219 ± 39 mg | HW/BW (MI rats [5]; [10]): 2.72 ± 0.04 mg/g | LV +dP/dt (MI rats [5]; [10]): 7637 ± 333 mmHg/s | LV −dP/dt (MI rats [5]; [10]): −5379 ± 441 mmHg/s | LVEDP (MI rats [5]; [10]): 12.6 ± 2.3 mmHg | LVSP (MI rats [5]; [10]): 140.6 ± 4.2 mmHg | Heart rate change, in words (MI rats [5]; after KMUP-3 treatment, not statistically significant): small increase in heart rate | TIMP-1 expression in MI rat hearts (TIMP-1 [6]): increases significantly | Cardiac fibrosis in central-infarct and peri-infarct areas (MI rats [7]; n=10, FIG. 4a-b): attenuates cardiac fibrosis | Percentage of fibrosis in non-infarcted area (MI rats [7]; n=10, FIG. 4c): comparable with that of the sham-operated hearts | Phosphodiesterase inhibitor potency, in words (phosphodiesterase): more potent than KMUP-1 | MMP-9 expression in HCFs (MMP-9 [8]; KMUP-3 10 mmol·L−1, 1 h before TGF-β 10 ng·mL−1 for 24 h, FIG. 6a): attenuates the expression of MMP-9 | Area of risk after coronary artery ligature (MI rats [9]; Evans blue staining, n=5, FIG. 3a): no difference between treatment groups | Infarction size (infarct area of LV) (MI rats [9]; TTC staining, MI rats after KMUP-3 treatment, n=10, MI group 47.4±3.7%, P<0.05): 33.6±1.7%

COC(=O)[C@@H](N)CCCNC(=N)N[N+](=O)[O-] [L-NAME, N^ω-nitro-L-arginine methyl ester, reference compound]
Effect of eNOS inhibitor pretreatment on KMUP-3 inhibition of MMP-9 expression in HCFs (MMP-9 [8]; L-NAME 100 mmol·L−1 with KMUP-3 10 mmol·L−1, TGF-β 10 ng·mL−1, FIG. 6a): reverses the inhibition of MMP-9 expression

Source: patent US20120095013A1, “USE OF KMUP-3 FOR MYOCARDIAL INFARCTION” (KAOHSIUNG MEDICAL UNIVERSITY, priority 2010, published 2012)
